Experimental data as given in ChEMBL document CHEMBL5365466, “Discovery of Triazolyl Derivatives of Cucurbitacin B Targeting IGF2BP1 against Non-Small Cell Lung Cancer” (J Med Chem, 2023).
One block for each molecule: values may come before it.

What was measured:
[1] = Antiproliferative activity against human L02 cells assessed as cell growth inhibition incubated for 72 hrs by MTT assay; assay type: toxicity, cell-based
HepG2 [2] = test: Antiproliferative activity against human HepG2 cells assessed as cell growth inhibition incubated for 72 hrs by MTT assay; assay type: functional, cell-based; conditions: HepG2, 72 h
A549 [3] = test: Antiproliferative activity against human A549 cells assessed as cell growth inhibition; assay type: functional, cell-based
A549 [4] = test: Induction of cell cycle arrest in human A549 cells assessed as accumulation of cells at G2 phase at 0.5 uM incubated for 24 hrs by PI staining based flow cytometric analysis (reference value: 9.26 %); assay type: functional
[5] = Antiproliferative activity against human L02 cells assessed as cell growth inhibition incubated for 72 hrs by SRB assay; assay type: toxicity, cell-based
A549 [6] = test: Antiproliferative activity against human A549 cells assessed as cell growth inhibition incubated for 72 hrs by SRB assay; assay type: functional, cell-based; conditions: A549, 72 h
[7] = biological target: Insulin-like growth factor 2 mRNA-binding protein 1 (Homo sapiens, UniProt Q9NZI8); test: Binding affinity to His-tagged recombinant IGF2BP1 (unknown origin) assessed as dissociation constant by surface plasmon resonance assay
Insulin-like growth factor 2 mRNA-binding protein 1, sequence (Q9NZI8 whole entry): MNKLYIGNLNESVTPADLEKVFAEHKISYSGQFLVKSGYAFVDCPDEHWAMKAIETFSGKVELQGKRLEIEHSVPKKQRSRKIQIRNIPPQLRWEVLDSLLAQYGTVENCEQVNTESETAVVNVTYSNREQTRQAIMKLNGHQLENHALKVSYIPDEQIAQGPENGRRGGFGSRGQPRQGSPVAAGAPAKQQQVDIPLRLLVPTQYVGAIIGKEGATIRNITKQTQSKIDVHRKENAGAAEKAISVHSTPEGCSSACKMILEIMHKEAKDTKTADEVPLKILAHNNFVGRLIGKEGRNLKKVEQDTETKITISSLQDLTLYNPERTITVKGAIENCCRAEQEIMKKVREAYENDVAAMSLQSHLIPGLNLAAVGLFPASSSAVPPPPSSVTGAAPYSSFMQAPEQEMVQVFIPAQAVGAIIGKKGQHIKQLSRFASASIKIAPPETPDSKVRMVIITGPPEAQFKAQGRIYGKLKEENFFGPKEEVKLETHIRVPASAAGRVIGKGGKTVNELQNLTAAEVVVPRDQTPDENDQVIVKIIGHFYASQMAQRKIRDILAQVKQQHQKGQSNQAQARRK

CFPAC-1 = test: Antiproliferative activity against human CFPAC-1 cells assessed as cell growth inhibition incubated for 72 hrs by SRB assay; assay type: functional, cell-based; conditions: CFPAC-1, 72 h
[8] = Selectivity index, ratio of IC50 for antiproliferative activity against human L02 cells to IC50 for antiproliferative activity against human HCT-116 cells; assay type: toxicity, cell-based; conditions: L02 cells versus HCT-116 cells, read-out: Ratio IC50
A549 [9] = test: Antitumor activity against human A549 cells xenografted in BALB/c mouse assessed as tumor growth inhibition at 0.5 mg/kg,ip administrated for 21 days; assay type: functional; conditions: A549, 504 h, time 21 day, read-out: TGI
A549 [10] = test: Induction of apoptosis in human A549 cells at 0.5 uM incubated for 48 hrs by Annexin V-FITC/PI staining based flow cytometric analysis; assay type: functional
[11] = Selectivity index, ratio of IC50 for antiproliferative activity against human L02 cells to IC50 for antiproliferative activity against human HepG2 cells; assay type: toxicity, cell-based; conditions: L02 cells versus HepG2 cells, read-out: Ratio IC50
HCT-116 [12] = test: Antiproliferative activity against human HCT-116 cells assessed as cell growth inhibition at 1 uM incubated for 72 hrs by SRB assay; assay type: functional
HCT-116 [13] = test: Antiproliferative activity against human HCT-116 cells assessed as cell growth inhibition incubated for 72 hrs by SRB assay; assay type: functional, cell-based; conditions: HCT-116, 72 h
[14] = Antiproliferative activity against human L02 cells assessed as cell growth inhibition at 1 uM incubated for 72 hrs by SRB assay; assay type: toxicity, cell-based
[15] = Antiproliferative activity against human L02 cells assessed as cell growth inhibition at 0.1 uM incubated for 72 hrs by SRB assay; assay type: toxicity, cell-based
[16] = Selectivity index, ratio of IC50 for antiproliferative activity against human L02 cells to IC50 for antiproliferative activity against human HeLa cells; assay type: toxicity, cell-based; conditions: L02 cells versus HeLa cells, read-out: Ratio IC50
A549 [17] = test: Induction of cell cycle arrest in human A549 cells assessed as accumulation of cells at S phase at 0.5 uM incubated for 24 hrs by PI staining based flow cytometric analysis (reference value: 23 %); assay type: functional
MDA-MB-231 = test: Antiproliferative activity against human MDA-MB-231 cells assessed as cell growth inhibition incubated for 72 hrs by SRB assay; assay type: functional, cell-based; conditions: MDA-MB-231, 72 h
[18] = Selectivity index, ratio of IC50 for antiproliferative activity against human L02 cells to IC50 for antiproliferative activity against human SK-OV-3 cells
MCF7 = test: Antiproliferative activity against human MCF7 cells assessed as cell growth inhibition incubated for 72 hrs by SRB assay; assay type: functional, cell-based; conditions: MCF7, 72 h
A549 [19] = test: Induction of cell cycle arrest in human A549 cells assessed as accumulation of cells at G1 phase at 0.5 uM incubated for 24 hrs by PI staining based flow cytometric analysis (reference value: 65.6 %); assay type: functional
BXPC-3 = test: Antiproliferative activity against human BXPC-3 cells assessed as cell growth inhibition incubated for 72 hrs by SRB assay; assay type: functional, cell-based; conditions: BXPC-3, 72 h
[20] = Selectivity index, ratio of IC50 for antiproliferative activity against human L02 cells to IC50 for antiproliferative activity against human MDA-MB-231 cells; assay type: toxicity, cell-based; conditions: L02 cells versus MDA-MB-231 cells, read-out: Ratio IC50
[21] = Acute toxicity in C57BL/6J mouse assessed as death at 0.75 mg/kg,ip measured after 14 days; assay type: organism-based; conditions: in vivo, 336 h, time 14 day
[22] = Selectivity index, ratio of IC50 for antiproliferative activity against human L02 cells to IC50 for antiproliferative activity against human MCF7 cells; assay type: toxicity, cell-based; conditions: L02 cells versus MCF7 cells, read-out: Ratio IC50
PANC-1 = test: Antiproliferative activity against human PANC-1 cells assessed as cell growth inhibition incubated for 72 hrs by SRB assay; assay type: functional, cell-based; conditions: PANC-1, 72 h
SK-OV-3 = test: Antiproliferative activity against human SK-OV-3 cells assessed as cell growth inhibition incubated for 72 hrs by SRB assay; assay type: functional, cell-based; conditions: SK-OV-3, 72 h
HCT-116 [23] = test: Antiproliferative activity against human HCT-116 cells assessed as cell growth inhibition at 0.1 uM incubated for 72 hrs by SRB assay; assay type: functional
HepG2 [24] = test: Antiproliferative activity against human HepG2 cells assessed as cell growth inhibition incubated for 72 hrs by SRB assay; assay type: functional, cell-based; conditions: HepG2, 72 h
[25] = Selectivity index, ratio of IC50 for antiproliferative activity against human L02 cells to IC50 for antiproliferative activity against human A549 cells; assay type: toxicity, cell-based; conditions: L02 cells versus A549 cells, read-out: Ratio IC50
[26] = Selectivity index, ratio of IC50 for antiproliferative activity against human L02 cells to IC50 for antiproliferative activity against human CFPAC-1 cells
[27] = Selectivity index, ratio of IC50 for antiproliferative activity against human L02 cells to IC50 for antiproliferative activity against human PANC-1 cells
HeLa = test: Antiproliferative activity against human HeLa cells assessed as cell growth inhibition incubated for 72 hrs by SRB assay; assay type: functional, cell-based
[28] = Selectivity index, ratio of IC50 for antiproliferative activity against human L02 cells to IC50 for antiproliferative activity against human BXPC-3 cells; assay type: toxicity, cell-based; conditions: L02 cells versus BXPC-3 cells, read-out: Ratio IC50

Compound: CC(=O)OC(C)(C)/C=C/C(=O)[C@](C)(O)[C@H]1[C@H](OCCCC(=O)OCCCOc2no[n+]([O-])c2S(=O)(=O)c2ccccc2)C[C@@]2(C)[C@@H]3CC=C4[C@@H](C[C@H](O)C(=O)C4(C)C)[C@]3(C)C(=O)C[C@]12C
IC50 at 72 h [1]: 2970 nM
IC50 (HepG2 [2]): 630 nM

Compound: CC(=O)OC(C)(C)/C=C/C(=O)[C@](C)(O)[C@H]1[C@H](O)C[C@@]2(C)[C@@H]3CC=C4[C@@H](C[C@H](O)C(=O)C4(C)C)[C@]3(C)C(=O)C[C@]12C
Activity (A549 [4]): 37.2%
IC50 at 72 h [5]: 11 nM
IC50 (A549 [6]): 88 nM
Kd [7]: 66.2 nM
IC50 (CFPAC-1): 23 nM
selectivity ratio [8]: 0.57
inhibition in vivo at 0.5 mg/kg (A549 [9]): 53%
Activity (A549 [10]): 29.1%
selectivity ratio [11]: 0.22
inhibition at 1 µM (HCT-116 [12]): 82.7%
IC50 (HCT-116 [13]): 19 nM
inhibition at 72 h, 1 µM [14]: 70.7%
inhibition at 72 h, 0.1 µM [15]: 70.6%
selectivity ratio [16]: 0.46
Activity (A549 [17]): 10.2%
IC50 (MDA-MB-231): 37 nM
Ratio IC50 [18]: 0.23
IC50 (MCF7): 40 nM
Activity (A549 [19]): 51.1%
IC50 (BXPC-3): 22 nM
selectivity ratio [20]: 0.3
Activity [21]: Non-Toxic
selectivity ratio [22]: 0.23
IC50 (PANC-1): 67 nM
IC50 (SK-OV-3): 47 nM
inhibition at 0.1 µM (HCT-116 [23]): 69%
IC50 (HepG2 [24]): 51 nM
selectivity ratio [25]: 0.13
Ratio IC50 [26]: 0.49
Ratio IC50 [27]: 0.16
IC50 (HeLa): 24 nM
selectivity ratio [28]: 0.5

Compound: CC(=O)OC(C)(C)/C=C/C(=O)[C@](C)(O)[C@H]1[C@H](O)C[C@@]2(C)[C@@H]3CC=C4[C@@H](C[C@H](OC(=O)c5cn(-c6ccc(F)cc6)nn5)C(=O)C4(C)C)[C@]3(C)C(=O)C[C@]12C
IC50 at 72 h [5]: 80 nM
selectivity ratio [8]: 2.58
inhibition at 1 µM (HCT-116 [12]): 87.4%
IC50 (HCT-116 [13]): 31 nM
inhibition at 72 h, 1 µM [14]: 71.9%
inhibition at 72 h, 0.1 µM [15]: 36.4%
inhibition at 0.1 µM (HCT-116 [23]): 65.3%

Compound: COc1cc(-n2cnn(CC(=O)O[C@H]3C[C@@H]4C(=CC[C@@H]5[C@@]4(C)C(=O)C[C@]4(C)[C@@H]([C@@](C)(O)C(=O)/C=C/C(C)(C)OC(C)=O)[C@H](O)C[C@@]54C)C(C)(C)C3=O)c2=O)cc(OC)c1OC
IC50 at 72 h [5]: 30 nM
selectivity ratio [8]: 0.81
inhibition at 1 µM (HCT-116 [12]): 84.2%
IC50 (HCT-116 [13]): 37 nM
inhibition at 72 h, 1 µM [14]: 70%
inhibition at 72 h, 0.1 µM [15]: 66%
inhibition at 0.1 µM (HCT-116 [23]): 78%

More lines, now with the values ahead:

IC50 (A549 [3]): 6.8 nM
Compound: CC1(C)C(=O)[C@@H](O)C[C@@H]2C1=CC[C@@H]1[C@@]2(C)C(=O)C[C@]2(C)[C@@H]([C@@](C)(O)C(=O)/C=C/C(C)(C)c3cccc(C#N)c3)[C@H](O)C[C@@]12C

IC50 (A549 [3]): 120 nM
Compound: CC(=O)OC(C)(C)/C=C/C(=O)[C@](C)(O)[C@H]1[C@H](O)C[C@@]2(C)[C@@H]3CC=C4[C@@H](C[C@H](N)C(=O)C4(C)C)[C@]3(C)C(=O)C[C@]12C
